ChEMBL document CHEMBL6103615, “Thymidylate Kinase-Targeted Antimicrobial Peptides via Phage Display: A Novel Strategy against Gram-Negative Bacteria” (J Med Chem, 2025)
In brackets after ≈: the same amount, converted by molar mass. Activity calls are given as the source filed them. The rule behind the calls is not given here.

Experiments:
[1] = system: Escherichia coli; test: Binding affinity to Escherichia coli K88 TraV at 128 uM by BLI assay
[2] = system: Escherichia coli; test: Binding affinity to Escherichia coli K88 TMK at 128 uM by BLI assay
[3] = system: Lactiplantibacillus plantarum; test: Antibacterial activity against Lactobacillus plantarum 8014 incubated for 12 to 18 hrs by microbroth dilution method; assay type: functional; conditions: time 12-18 hrs
[4] = Cytotoxicity against porcine IPEC-J2 cells assessed as cell viability at 128 uM incubated for 4 hrs by MTT assay relative to control; assay type: toxicity, cell-based, Sus scrofa; conditions: pig, read-out: Activity
[5] = system: Lactococcus lactis; test: Antibacterial activity against Lactococcus lactis NZ9000 incubated for 12 to 18 hrs by microbroth dilution method; assay type: functional; conditions: time 12-18 hrs
[6] = Antibacterial activity against Salmonella choleraesuis 21493 incubated for 12 to 18 hrs by microbroth dilution method; assay type: functional, Salmonella enterica subsp. enterica serovar Choleraesuis; conditions: Salmonella enterica, time 12-18 hrs
[7] = system: Enterococcus faecalis; test: Antibacterial activity against Enterococcus faecalis 29212 incubated for 12 to 18 hrs by microbroth dilution method; assay type: functional; conditions: time 12-18 hrs
[8] = system: Lacticaseibacillus rhamnosus; test: Antibacterial activity against Lactobacillus rhamnosus 7469 incubated for 12 to 18 hrs by microbroth dilution method; assay type: functional; conditions: time 12-18 hrs
[9] = Cytotoxicity against mouse RAW264.7 cells assessed as cell viability at 128 uM incubated for 4 hrs by MTT assay relative to control; assay type: toxicity, cell-based; conditions: read-out: Activity
[10] = Hemolytic activity against human red blood cells at 2 to 128 uM relative to control; assay type: toxicity, cell-based, Erythrocyte; conditions: dose 2-128 µM, read-out: Activity
[11] = Relative hydrophobic moment of compound; assay type: physicochemical
[12] = Hydrophobicity of compound; assay type: physicochemical
[13] = system: Staphylococcus epidermidis; test: Antibacterial activity against Staphylococcus epidermidis 12228 incubated for 12 to 18 hrs by microbroth dilution method; assay type: functional; conditions: time 12-18 hrs
[14] = system: Staphylococcus aureus; test: Antibacterial activity against methicillin-resistant Staphylococcus aureus 43300 incubated for 12 to 18 hrs by microbroth dilution method; assay type: functional; conditions: time 12-18 hrs
[15] = system: Escherichia coli; test: Antibacterial activity against Escherichia coli 078 incubated for 12 to 18 hrs by microbroth dilution method; assay type: functional; conditions: time 12-18 hrs
[16] = system: Pseudomonas aeruginosa; test: Antibacterial activity against Pseudomonas aeruginosa PAO1 incubated for 12 to 18 hrs by microbroth dilution method; assay type: functional; conditions: time 12-18 hrs
[17] = system: Escherichia coli; test: Antibacterial activity against Escherichia coli K88 incubated for 12 to 18 hrs by microbroth dilution method; assay type: functional; conditions: time 12-18 hrs
[18] = system: Salmonella typhimurium; test: Antibacterial activity against Salmonella typhimurium 7731 incubated for 12 to 18 hrs by microbroth dilution method; assay type: functional, Salmonella enterica subsp. enterica serovar Typhimurium; conditions: Salmonella enterica, time 12-18 hrs
[19] = system: Escherichia coli; test: Antibacterial activity against Escherichia coli K99 incubated for 12 to 18 hrs by microbroth dilution method; assay type: functional; conditions: time 12-18 hrs
[20] = system: Staphylococcus aureus; test: Antibacterial activity against Staphylococcus aureus 29213 incubated for 12 to 18 hrs by microbroth dilution method; assay type: functional; conditions: time 12-18 hrs
[21] = system: Escherichia coli; test: Antibacterial activity against Escherichia coli 1515 incubated for 12 to 18 hrs by microbroth dilution method; assay type: functional; conditions: time 12-18 hrs
[22] = system: Staphylococcus aureus; test: Antibacterial activity against Staphylococcus aureus 25923 incubated for 12 to 18 hrs by microbroth dilution method; assay type: functional; conditions: time 12-18 hrs
[23] = system: Pseudomonas aeruginosa; test: Antibacterial activity against Pseudomonas aeruginosa 27853 incubated for 12 to 18 hrs by microbroth dilution method; assay type: functional; conditions: time 12-18 hrs

Compound | MIC [3] [µM] | viability at 4 h, 128 µM [4] [%] | MIC [5] [µM] | MIC [6] [µM] | MIC [7] [µM] | MIC [8] [µM] | viability at 4 h, 128 µM [9] [%] | hemolysis at up to 128 µM [10] [%] | Activity [11] | Activity [12] | MIC [13] [µM] | MIC [14] [µM] | MIC [15] [µM] | MIC [16] [µM] | MIC [17] [µM] | MIC [18] [µM] | MIC [19] [µM] | MIC [20] [µM] | MIC [21] [µM] | MIC [22] [µM] | also measured
CC[C@@H](C)[C@H](NC(=O)CNC(=O)[C@@H]1CCCN1C(=O)[C@H](CCCCN)NC(=O)[C@H](Cc1c[nH]c2ccccc12)NC(=O)[C@@H](NC(=O)[C@H](CCCCN)NC(=O)[C@H](CCCCN)NC(=O)[C@H](Cc1c[nH]c2ccccc12)NC(=O)[C@H](Cc1ccc(O)cc1)NC(=O)[C@H](CCCCN)NC(=O)[C@@H](NC(=O)[C@H](CC(C)C)NC(=O)[C@H](CC(N)=O)NC(=O)CNC(=O)[C@H](CO)NC(=O)CCCC[C@@H]1SC[C@@H]2NC(=O)N[C@@H]21)[C@@H](C)O)[C@@H](C)CC)C(=O)N[C@@H](CCCCN)C(=O)N[C@@H](CCCCN)C(=O)N[C@@H](Cc1c[nH]c2ccccc12)C(=O)N[C@H](C(=O)N[C@@H](CCCCN)C(=O)O)[C@H](C)CC | – | – | – | – | – | – | – | – | – | – | – | – | – | – | – | – | – | – | – | – | Activity [1]: Active; Activity [2]: Active
CC[C@H](C)[C@H](NC(=O)CN)C(=O)NCC(=O)N[C@@H](C)C(=O)N[C@H](C(=O)N[C@@H](CC(C)C)C(=O)N[C@@H](CCCCN)C(=O)N[C@H](C(=O)N[C@@H](CC(C)C)C(=O)N[C@H](C(=O)N[C@H](C(=O)NCC(=O)N[C@@H](CC(C)C)C(=O)N1CCC[C@H]1C(=O)N[C@@H](C)C(=O)N[C@@H](CC(C)C)C(=O)N[C@H](C(=O)N[C@@H](CO)C(=O)N[C@@H](Cc1c[nH]c2ccccc12)C(=O)N[C@H](C(=O)N[C@@H](CCCCN)C(=O)N[C@@H](CCCNC(=N)N)C(=O)N[C@@H](CCCCN)C(=O)N[C@@H](CCCNC(=N)N)C(=O)N[C@@H](CCC(N)=O)C(=O)N[C@@H](CCC(N)=O)C(N)=O)[C@@H](C)CC)[C@@H](C)CC)[C@@H](C)O)[C@@H](C)O)C(C)C)C(C)C [MELITTIN] | 2 (≈ 5.69 µg/mL) | > 80 | 2 (≈ 5.69 µg/mL) | 4 (≈ 11.4 µg/mL) | 2 (≈ 5.69 µg/mL) | 2 (≈ 5.69 µg/mL) | > 80 | < 5 | – | – | – | – | – | – | – | – | – | – | – | – | –
H-CFASAPRWKKIWKPGIKKWIK-OH [listing 1 of 2 here] | – | > 80 | – | – | – | – | > 80 | < 5 | 0.562 | 0.502 | – | – | – | – | – | – | – | – | – | – | –
H-CFASAPRWKKIWKPGIKKWIK-OH [listing 2 of 2 here] | 128 | – | 128 | 16 | 128 | 128 | – | – | – | – | 128 | 128 | 16 | 8 | 8 | 16 | 16 | 128 | 8 | 128 | MIC [23]: 32 µM
H-EMPGYNSWKKIWKPGIKKWIK-OH | 128 | > 80 | 128 | 64 | 128 | 128 | > 80 | < 5 | 0.475 | 0.408 | 128 | 128 | 128 | 32 | 32 | 64 | 32 | 128 | 64 | 128 | MIC [23]: 64 µM
